Source: the supplement of paper PMC10331698
± gives the standard deviation of the averaged measurements.

Experiments:
Assay in all cases: level (log10 ratio to DMSO vehicle control); higher = higher biomarker level / cell amount than vehicle control
[1] = compound: C=CC(=O)OCC(F)(F)C(F)(F)C(F)(F)C(F)(F)C(F)(F)C(F)(F)C(F)(F)C(F)F [1H,1H,9H-Perfluorononyl acrylate]; conditions: in DMSO
Protocol: (§1)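 BioMAP Diversity Plus panel of 12 human primary cell co-culture systems (3C, 4H, LPS, SAg, BT, BF4T, BE3C, CASM3C, HDF3CGF, KF3CT, MyoF, Mphg). Compounds were added 1 h before stimulation and left for 24 h (MyoF 48 h; BT 72 h for soluble read-outs or 6 d for IgG). Biomarkers were read by ELISA, cytotoxicity by SRB, PBMC viability and proliferation by Alamar Blue. Each well value was divided by the mean of 8 DMSO control wells on the same plate and log10 transformed; duplicate blinded samples were tested at 4 concentrations.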

[2] = compound: OCC(F)(F)C(F)(F)C(F)(F)C(F)(F)C(F)(F)C(F)(F)F [6:1 Fluorotelomer alcohol]; conditions: in DMSO
Protocol: as §1

[3] = compound: FC(F)(I)C(F)(F)C(F)(F)C(F)(F)C(F)(F)C(F)(F)I [1,6-Diiodoperfluorohexane]; conditions: 6700 nM; in DMSO
Protocol: as §1

[4] = compound: C=CC(=O)OCC(F)(F)C(F)(F)C(F)(F)C(F)(F)COC(=O)C=C [1H,1H,6H,6H-Perfluorohexane-1,6-diol diacrylate]; conditions: 6700 nM; in DMSO
Protocol: as §1

[5] = compound: OCCCC(F)(F)C(F)(F)C(F)(F)C(F)(F)C(F)(F)C(F)(F)C(F)(F)C(F)(F)F [3-(Perfluorooctyl)propanol]; conditions: 6700 nM; in DMSO
Protocol: as §1

[6] = compound: Cc1ccc(S(=O)(=O)OCC(F)(F)C(F)(F)C(F)(F)C(F)(F)C(F)(F)C(F)F)cc1 [1H,1H,7H-Perfluoroheptyl 4-methylbenzenesulfonate]; conditions: in DMSO
Protocol: as §1

[7] = compound: FC(F)(F)COC(OCC(F)(F)F)OCC(F)(F)F [tris(Trifluoroethoxy)methane]; conditions: in DMSO
Protocol: as §1

Perfluoropinacol = compound: OC(C(F)(F)F)(C(F)(F)F)C(O)(C(F)(F)F)C(F)(F)F [Perfluoropinacol]; conditions: in DMSO
Protocol: as §1

[8] = compound: FC(F)(F)C(F)(F)C(F)(F)C(F)(F)CCI [1H,1H,2H,2H-Perfluorohexyl iodide]; conditions: in DMSO
Protocol: as §1

| Test System | level (log10) ([1]; 6700 nM) | level (log10) ([1]; 20000 nM) | level (log10) ([1]; 60000 nM) | level (log10) ([2]; 6700 nM) | level (log10) ([2]; 20000 nM) | level (log10) ([2]; 60000 nM) | level (log10) [3] | level (log10) [4] | level (log10) [5] | level (log10) ([6]; 6700 nM) | level (log10) ([6]; 20000 nM) | level (log10) ([6]; 60000 nM) | level (log10) ([7]; 6700 nM) | level (log10) ([7]; 20000 nM) | level (log10) ([7]; 60000 nM) | level (log10) (Perfluoropinacol; 6700 nM) | level (log10) (Perfluoropinacol; 20000 nM) | level (log10) ([8]; 6700 nM) | level (log10) ([8]; 20000 nM) | level (log10) ([8]; 60000 nM) |
| --- | --- | --- | --- | --- | --- | --- | --- | --- | --- | --- | --- | --- | --- | --- | --- | --- | --- | --- | --- | --- |
| BE3C:PAI-I | -0.029 ± 0.031 | -0.003 ± 0.018 | -0.02 ± 0.011 | -0.0235 ± 0.0092 | -0.007 ± 0.0014 | 0.026 ± 0.011 | 0.015 | 0.0495 ± 0.025 | -0.008 ± 0.0014 | -0.0365 ± 0.019 | -0.0745 ± 0.016 | -0.057 ± 0.0099 | -0.0015 ± 0.0035 | -0.0005 ± 0.00071 | -0.0045 ± 0.00071 | -0.119 ± 0.016 | -0.189 ± 0.0085 | -0.0335 ± 0.0064 | -0.0305 ± 0.036 | -0.051 ± 0.0085 |
| KF3CT:IL-1alpha | 0.021 ± 0.0042 | 0.023 ± 0.031 | 0.018 ± 0.0085 | -0.005 ± 0.02 | 0.0195 ± 0.021 | 0.007 ± 0.0071 | -0.073 | -0.0545 ± 0.035 | -0.0985 ± 0.012 | -0.053 ± 0.024 | -0.01 ± 0.024 | 0.013 ± 0.038 | -0.0045 ± 0.0078 | -0.0055 ± 0.0092 | 0.0055 ± 0.019 | 0.0765 ± 0.028 | 0.155 ± 0.032 | 0.0115 ± 0.037 | 0.0105 ± 0.015 | 0.051 ± 0.0071 |
| HDF3CGF:Collagen III | -0.096 ± 0.03 | -0.102 ± 0.022 | -0.124 ± 0.016 | -0.0865 ± 0.14 | 0.0115 ± 0.074 | -0.367 ± 0.052 | -0.358 | 0.105 ± 0.11 | -0.12 ± 0.0092 | -0.0605 ± 0.03 | -0.0435 ± 0.011 | -0.048 ± 0.073 | -0.013 ± 0.0071 | -0.0205 ± 0.0092 | 0.0075 ± 0.016 | 0.0175 ± 0.0078 | -0.0845 ± 0.0064 | -0.0145 ± 0.021 | -0.0185 ± 0.052 | -0.035 ± 0.047 |
| KF3CT:CXCL9/MIG | -0.0145 ± 0.0035 | -0.007 ± 0.017 | -0.019 ± 0.0057 | -0.0025 ± 0.019 | -0.003 ± 0.016 | 0.0025 ± 0.0021 | -0.088 | -0.034 ± 0.0071 | -0.018 ± 0.0057 | -0.005 ± 0.014 | -0.0025 ± 0.012 | -0.008 ± 0.0057 | 0.0215 ± 0.032 | 0.006 ± 0.027 | 0.0175 ± 0.015 | 0.002 ± 0.0028 | -0.004 ± 0.0071 | 0.004 ± 0.0099 | 0.0095 ± 0.011 | 0.0135 ± 0.033 |
| MyoF:Decorin | -0.014 ± 0.024 | -0.0655 ± 0.0021 | -0.065 ± 0.052 | 0.004 ± 0.0071 | 0.0075 ± 0.0092 | 0.0005 ± 0.023 | 0.021 | -0.083 ± 0.011 | 0.0395 ± 0.033 | 0.0065 ± 0.033 | 0.0045 ± 0.025 | 0.073 ± 0.05 | 0.017 ± 0.025 | 0.0235 ± 0.013 | 0.0245 ± 0.021 | -0.041 ± 0.024 | -0.034 ± 0.025 | 0.0085 ± 0.012 | 0.011 ± 0.025 | 0.024 ± 0.075 |
| KF3CT:TIMP-2 | -0.0125 ± 0.046 | -0.022 ± 0.0085 | -0.042 ± 0.011 | -0.0025 ± 0.005 | 0.0035 ± 0.0021 | 0.008 ± 0.017 | -0.022 | -0.088 ± 0.0057 | -0.0255 ± 0.063 | -0.0015 ± 0.005 | 0.0025 ± 0.029 | 0.017 ± 0.021 | -0.0025 ± 0.021 | -0.007 ± 0.011 | -0.0045 ± 0.012 | 0.013 ± 0.0085 | 0.0745 ± 0.0064 | -0.0185 ± 0.005 | -0.009 ± 0.018 | -0.008 ± 0.02 |
| lMphg:CXCL8/IL-8 | 0.014 ± 0.02 | 0.0025 ± 0.0064 | 0.038 ± 0.014 | 0.0335 ± 0.016 | 0.0395 ± 0.035 | 0.0375 ± 0.0092 | 0.018 | 0.0035 ± 0.0092 | 0.0655 ± 0.015 | 0.022 ± 0.0057 | 0 | 0.022 ± 0.057 | -0.0095 ± 0.016 | -0.018 ± 0.0042 | -0.007 ± 0.044 | 0.0875 ± 0.061 | 0.161 ± 0.066 | -0.0325 ± 0.0035 | -0.006 ± 0.0085 | 0.0355 ± 0.018 |
| CASM3C:M-CSF | -0.0225 ± 0.06 | 0.001 ± 0.031 | -0.041 ± 0.071 | -0.013 ± 0.0042 | -0.013 ± 0.037 | -0.0855 ± 0.023 | -0.042 | -0.105 ± 0.016 | -0.0325 ± 0.025 | -0.024 ± 0.0028 | -0.0445 ± 0.013 | 0.007 ± 0.051 | -0.0565 ± 0.015 | -0.03 ± 0.021 | 0.013 ± 0.037 | 0.0505 ± 0.0021 | 0.0315 ± 0.0092 | -0.013 ± 0.0014 | -0.02 ± 0.0014 | 0.0035 ± 0.049 |
| KF3CT:CD54/ICAM-1 | -0.0185 ± 0.005 | -0.0245 ± 0.0078 | -0.048 ± 0.0085 | 0.001 ± 0.0014 | -0.005 ± 0.0071 | 0.016 ± 0.013 | -0.038 | -0.076 ± 0.0028 | -0.062 ± 0.024 | 0.003 ± 0.0057 | 0.001 ± 0.0042 | 0 ± 0.0042 | -0.015 | -0.021 ± 0.0014 | -0.006 ± 0.023 | 0.012 ± 0.0099 | 0.0185 ± 0.015 | -0.0045 ± 0.025 | 0.016 ± 0.016 | -0.005 ± 0.027 |
| CASM3C:LDLR | -0.0545 ± 0.026 | 0.0515 ± 0.042 | 0.0355 ± 0.063 | 0.0045 ± 0.016 | 0.014 ± 0.017 | -0.0585 ± 0.022 | -0.028 | 0.001 ± 0.028 | 0.0385 ± 0.023 | -0.0095 ± 0.0092 | 0.007 ± 0.0099 | 0.0285 ± 0.022 | -0.0325 ± 0.022 | -0.0055 ± 0.015 | 0.008 ± 0.013 | -0.067 ± 0.0014 | -0.0505 ± 0.018 | 0.0305 ± 0.021 | 0.02 ± 0.035 | 0.0415 ± 0.053 |
| 3C:CD54/ICAM-1 | -0.009 ± 0.0057 | -0.0085 ± 0.012 | -0.0105 ± 0.015 | 0.004 | -0.001 ± 0.0071 | -0.0815 ± 0.12 | 0.03 | -0.028 ± 0.0085 | 0.0095 ± 0.0064 | 0.0085 ± 0.0021 | -0.005 ± 0.0085 | -0.01 ± 0.02 | 0.004 ± 0.0042 | -0.0105 ± 0.0064 | -0.0145 ± 0.00071 | 0.0055 ± 0.0021 | -0.0005 ± 0.021 | -0.01 ± 0.041 | -0.027 ± 0.025 | -0.009 ± 0.054 |
| lMphg:CCL2/MCP-1 | -0.009 ± 0.0099 | -0.025 ± 0.021 | -0.041 ± 0.055 | -0.016 ± 0.0028 | -0.046 ± 0.023 | -0.02 ± 0.0071 | -0.029 | -0.04 ± 0.061 | 0.0035 ± 0.016 | -0.033 ± 0.0014 | -0.0345 ± 0.015 | -0.0055 ± 0.026 | -0.01 ± 0.023 | 0.0005 ± 0.011 | 0.018 ± 0.035 | 0.0265 ± 0.028 | -0.148 ± 0.0014 | -0.028 ± 0.042 | -0.0285 ± 0.0021 | 0.008 ± 0.013 |
| KF3CT:CCL2/MCP-1 | -0.0075 ± 0.043 | -0.057 ± 0.024 | -0.137 ± 0.085 | 0.012 ± 0.0014 | 0.009 ± 0.0099 | -0.007 ± 0.0085 | -0.251 | -0.101 ± 0.045 | -0.077 ± 0.025 | 0.0035 ± 0.028 | -0.077 ± 0.025 | -0.009 ± 0.048 | -0.021 ± 0.035 | -0.029 ± 0.0085 | 0.0315 ± 0.052 | 0.0955 ± 0.013 | 0.211 ± 0.024 | -0.0255 ± 0.026 | -0.015 ± 0.04 | -0.004 ± 0.047 |
